Test results: ChEMBL document CHEMBL4665659, “Utilizing comprehensive and mini-kinome panels to optimize the selectivity of quinoline inhibitors for cyclin G associated kinase (GAK)” (Bioorg Med Chem Lett, 2019)
Activity calls are given as the source filed them. The rule behind the calls is not given here.

Tests used:
[1] = target: T1, Cyclin-G-associated kinase (Homo sapiens, UniProt O14976); assay: Binding affinity to human wild type partial length GAK (G13 to Y338 residues) expressed in bacterial expression system by KinomeScan method
T1 sequence (O14976 whole entry): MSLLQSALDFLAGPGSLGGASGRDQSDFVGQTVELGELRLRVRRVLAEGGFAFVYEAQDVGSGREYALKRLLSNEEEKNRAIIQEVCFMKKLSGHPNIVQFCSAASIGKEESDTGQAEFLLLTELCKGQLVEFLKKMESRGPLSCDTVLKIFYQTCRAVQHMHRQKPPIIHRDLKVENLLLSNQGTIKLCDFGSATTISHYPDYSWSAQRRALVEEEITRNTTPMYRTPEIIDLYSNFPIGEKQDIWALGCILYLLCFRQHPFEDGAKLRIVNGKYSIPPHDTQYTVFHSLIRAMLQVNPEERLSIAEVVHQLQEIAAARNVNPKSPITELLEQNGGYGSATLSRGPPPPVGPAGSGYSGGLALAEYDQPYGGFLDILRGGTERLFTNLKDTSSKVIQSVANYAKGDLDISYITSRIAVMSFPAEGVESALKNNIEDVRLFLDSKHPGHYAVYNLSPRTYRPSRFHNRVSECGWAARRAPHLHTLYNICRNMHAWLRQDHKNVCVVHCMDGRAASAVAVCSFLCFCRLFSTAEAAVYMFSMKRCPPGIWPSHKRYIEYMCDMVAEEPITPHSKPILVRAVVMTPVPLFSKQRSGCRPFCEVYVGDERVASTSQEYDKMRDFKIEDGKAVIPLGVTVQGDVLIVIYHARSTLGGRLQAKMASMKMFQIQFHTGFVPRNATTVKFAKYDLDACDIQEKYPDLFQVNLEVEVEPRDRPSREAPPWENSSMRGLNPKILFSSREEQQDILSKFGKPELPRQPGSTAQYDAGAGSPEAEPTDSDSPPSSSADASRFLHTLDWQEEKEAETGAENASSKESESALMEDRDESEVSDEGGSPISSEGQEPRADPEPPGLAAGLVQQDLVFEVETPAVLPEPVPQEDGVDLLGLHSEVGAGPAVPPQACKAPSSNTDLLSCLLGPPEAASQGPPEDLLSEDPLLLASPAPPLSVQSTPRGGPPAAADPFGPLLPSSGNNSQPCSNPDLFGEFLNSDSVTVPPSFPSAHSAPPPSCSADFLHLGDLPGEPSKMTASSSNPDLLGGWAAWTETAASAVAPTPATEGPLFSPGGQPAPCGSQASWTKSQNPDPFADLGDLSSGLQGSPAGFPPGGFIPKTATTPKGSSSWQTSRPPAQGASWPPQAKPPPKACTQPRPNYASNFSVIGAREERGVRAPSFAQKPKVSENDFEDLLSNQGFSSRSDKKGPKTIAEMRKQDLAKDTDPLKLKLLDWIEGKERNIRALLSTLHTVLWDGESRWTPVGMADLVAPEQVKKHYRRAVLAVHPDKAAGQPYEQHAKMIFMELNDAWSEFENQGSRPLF

[2] = target: Tyrosine-protein kinase Fyn (Homo sapiens) (UniProt P06241); assay: Inhibition of human wild type partial length Fyn (T243 to L534 residues) expressed in bacterial expression system at 1 uM by Kinomescan method
Chain of Tyrosine-protein kinase Fyn (Homo sapiens) (P06241 2-537 limits assumed): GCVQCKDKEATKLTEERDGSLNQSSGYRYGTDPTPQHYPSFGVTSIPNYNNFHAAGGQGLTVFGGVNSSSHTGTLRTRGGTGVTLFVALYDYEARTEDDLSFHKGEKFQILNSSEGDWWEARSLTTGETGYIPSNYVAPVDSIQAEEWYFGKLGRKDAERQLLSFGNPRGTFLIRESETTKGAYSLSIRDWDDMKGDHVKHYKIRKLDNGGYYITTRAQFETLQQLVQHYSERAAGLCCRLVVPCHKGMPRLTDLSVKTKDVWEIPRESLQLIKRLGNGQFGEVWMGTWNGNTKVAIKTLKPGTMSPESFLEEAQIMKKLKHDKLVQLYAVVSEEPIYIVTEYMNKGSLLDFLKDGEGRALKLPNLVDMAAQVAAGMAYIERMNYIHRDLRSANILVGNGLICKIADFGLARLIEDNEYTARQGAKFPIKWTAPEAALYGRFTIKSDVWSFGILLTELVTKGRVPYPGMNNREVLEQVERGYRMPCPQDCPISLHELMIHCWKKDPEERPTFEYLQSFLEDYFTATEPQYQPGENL

[3] = target: T2, Ephrin type-A receptor 8 (Homo sapiens) (UniProt P29322); assay: Inhibition of human wild type partial length EphA8 (Q608 to C920 residues) expressed in bacterial expression system at 1 uM by Kinomescan method
T2 sequence (whole entry): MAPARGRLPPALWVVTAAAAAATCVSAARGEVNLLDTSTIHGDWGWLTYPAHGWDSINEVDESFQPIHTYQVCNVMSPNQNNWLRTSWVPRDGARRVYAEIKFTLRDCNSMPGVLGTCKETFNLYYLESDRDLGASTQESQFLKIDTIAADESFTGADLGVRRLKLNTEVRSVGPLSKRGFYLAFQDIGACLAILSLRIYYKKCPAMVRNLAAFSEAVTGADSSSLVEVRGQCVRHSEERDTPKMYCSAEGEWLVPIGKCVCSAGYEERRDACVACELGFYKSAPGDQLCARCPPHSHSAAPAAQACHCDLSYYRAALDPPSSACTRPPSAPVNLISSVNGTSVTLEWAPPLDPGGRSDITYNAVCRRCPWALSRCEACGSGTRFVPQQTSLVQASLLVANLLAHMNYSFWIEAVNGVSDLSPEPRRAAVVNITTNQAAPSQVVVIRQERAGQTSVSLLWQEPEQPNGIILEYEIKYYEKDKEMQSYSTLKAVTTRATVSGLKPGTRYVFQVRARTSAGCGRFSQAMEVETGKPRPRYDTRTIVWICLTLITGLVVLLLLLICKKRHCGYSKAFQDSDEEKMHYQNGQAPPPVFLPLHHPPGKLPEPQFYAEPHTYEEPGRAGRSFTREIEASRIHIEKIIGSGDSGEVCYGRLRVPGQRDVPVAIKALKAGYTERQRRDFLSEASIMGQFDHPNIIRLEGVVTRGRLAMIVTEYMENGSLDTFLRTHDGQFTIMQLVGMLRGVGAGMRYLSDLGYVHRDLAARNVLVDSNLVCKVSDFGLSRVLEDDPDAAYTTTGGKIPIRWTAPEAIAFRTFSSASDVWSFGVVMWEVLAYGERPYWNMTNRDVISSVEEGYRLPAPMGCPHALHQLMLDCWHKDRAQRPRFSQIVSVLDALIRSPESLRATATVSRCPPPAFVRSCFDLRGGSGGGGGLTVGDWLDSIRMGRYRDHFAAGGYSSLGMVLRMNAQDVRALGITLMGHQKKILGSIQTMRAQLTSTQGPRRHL

Homo sapiens = species on record: Homo sapiens; assay: Binding affinity to human ABL at 1 uM by Kinomescan method
[4] = target: Bone morphogenetic protein receptor type-1B (Homo sapiens, UniProt O00238); assay: Inhibition of human ALK6 at 1 uM by Kinomescan method
Chain of Bone morphogenetic protein receptor type-1B (O00238 whole entry): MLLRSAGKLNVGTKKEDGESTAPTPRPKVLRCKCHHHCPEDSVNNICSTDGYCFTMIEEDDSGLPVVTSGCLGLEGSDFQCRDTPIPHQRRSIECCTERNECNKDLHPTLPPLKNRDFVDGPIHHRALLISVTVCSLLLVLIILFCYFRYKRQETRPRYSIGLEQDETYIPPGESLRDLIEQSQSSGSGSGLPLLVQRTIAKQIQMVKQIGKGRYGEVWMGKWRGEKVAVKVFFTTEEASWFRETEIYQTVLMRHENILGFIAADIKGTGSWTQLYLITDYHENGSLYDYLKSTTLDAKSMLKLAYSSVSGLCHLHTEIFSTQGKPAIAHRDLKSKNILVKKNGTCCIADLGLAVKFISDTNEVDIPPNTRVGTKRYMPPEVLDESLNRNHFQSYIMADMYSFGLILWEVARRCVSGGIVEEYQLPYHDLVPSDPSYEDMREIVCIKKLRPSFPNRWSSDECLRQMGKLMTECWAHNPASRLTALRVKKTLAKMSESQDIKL

Kd [1] [nM] | inhibition [2] | inhibition [3] | Activity (Homo sapiens) | inhibition [4] | SMILES
7.6 | Active | Active | Active | Active | COc1cc(Nc2ccnc3cc(I)ccc23)cc(OC)c1OC
43 | Active | Active | Active | Active | COc1cc(Nc2ccnc3cc(C#N)ccc23)cc(OC)c1OC
13 | Active | Active | Active | Active | COc1cc(Nc2ccnc3cc(Cl)ccc23)cc(OC)c1OC
23 | Active | Active | Active | Active | COc1cc(Nc2ccnc3cc(C(F)(F)F)ccc23)cc(OC)c1OC
8.6 | Active | Active | Active | Active | COc1cc(Nc2ccnc3cc(Br)ccc23)cc(OC)c1OC
